# How the values were obtained:
# [1] = target: T1, C-X-C chemokine receptor type 4 (Homo sapiens, UniProt P61073); test: Antagonist activity at human CXCR4 in CCRF-CEM cells assessed as decrease in SDF-1alpha stimulated Ca2+ flux preincubated for 25 mins followed by SDF-1alpha addition measured for 90 secs by calcium dye-based fluorescence assay; format: functional, cell-based
# Cytochrome P450 3A4 = Cytochrome P450 3A4 (Homo sapiens, UniProt P08684); test: Inhibition of CYP3A4 (unknown origin)
# [2] = Metabolic stability in mouse liver microsomes assessed as parent compound remaining at 0.5 uM after 10 mins in presence of NADPH by LC-MS/MS analysis
# [3] = Permeability of the compound at pH 7.4 at 100 uM after 4 hrs by PAMPA
# [4] = target: T1, C-X-C chemokine receptor type 4; test: Agonist activity at CXCR4 in human CCRF-CEM cells assessed as induction of Ca2+ flux measured for 90 secs by calcium dye-based fluorescence assay; format: functional, cell-based
# [5] = Antagonist activity at mAChR in human CCRF-CEM cells assessed as decrease in acetylacholine-stimulated Ca2+ flux preincubated for 25 mins followed by acetylacholine addition measured for 90 secs by calcium dye-based fluorescence assay; format: cell-based
# [6] = Agonist activity at mAChR in human CCRF-CEM cells assessed as induction of Ca2+ flux measured for 90 secs by calcium dye-based fluorescence assay; format: cell-based
# Cytochrome P450 2D6 = Cytochrome P450 2D6 (Homo sapiens, UniProt P10635); test: Inhibition of recombinant human CYP2D6 expressed in microsomes of insect cells using AMMC as substrate preincubated for 30 mins followed by NADP addition after 45 mins by fluorescence analysis
# [7] = Metabolic stability in human liver microsomes assessed as parent compound remaining at 0.5 uM after 10 mins in presence of NADPH by LC-MS/MS analysis
# Cytochrome P450 2C19 = Cytochrome P450 2C19 (Homo sapiens, UniProt P33261); test: Inhibition of CYP2C19 (unknown origin)
# [8] = Inhibition of CYP1A4 (unknown origin)
# Cytochrome P450 2C8 = target: T2, Cytochrome P450 2C8 (Homo sapiens, UniProt P10632); test: Inhibition of CYP2C8 (unknown origin)
# T2 sequence (P10632 whole entry): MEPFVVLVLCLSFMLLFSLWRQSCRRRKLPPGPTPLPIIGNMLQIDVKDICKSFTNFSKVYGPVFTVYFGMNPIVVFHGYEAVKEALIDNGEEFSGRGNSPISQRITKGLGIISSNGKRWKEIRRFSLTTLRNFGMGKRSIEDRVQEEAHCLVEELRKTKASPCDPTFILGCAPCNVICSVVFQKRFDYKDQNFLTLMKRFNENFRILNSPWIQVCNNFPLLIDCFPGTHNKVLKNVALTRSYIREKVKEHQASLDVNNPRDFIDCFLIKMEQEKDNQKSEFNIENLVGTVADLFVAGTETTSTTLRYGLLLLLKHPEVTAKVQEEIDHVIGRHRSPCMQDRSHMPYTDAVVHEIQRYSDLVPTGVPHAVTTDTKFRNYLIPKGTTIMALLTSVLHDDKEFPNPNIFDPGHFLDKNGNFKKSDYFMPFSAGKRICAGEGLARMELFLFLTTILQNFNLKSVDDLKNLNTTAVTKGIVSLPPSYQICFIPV
# [9] = Permeability of the compound at pH 5.5 at 100 uM after 4 hrs by PAMPA
# Cytochrome P450 2C9 = Cytochrome P450 2C9 (Homo sapiens, UniProt P11712); test: Inhibition of CYP2C9 (unknown origin)
# [10] = Half life in rat Plasma; format: ADME, cell-free
# Homo sapiens = species: Homo sapiens; test: Inhibition of chemokine receptor (unknown origin) at 10 uM
# [11] = Half life in human liver microsomes; format: ADME, microsome
# [12] = target: C-X-C chemokine receptor type 4 (Mus musculus, UniProt P70658); test: Antagonist activity at mouse CXCR4
# Chain of C-X-C chemokine receptor type 4 (Mus musculus, UniProt P70658) (P70658 whole entry): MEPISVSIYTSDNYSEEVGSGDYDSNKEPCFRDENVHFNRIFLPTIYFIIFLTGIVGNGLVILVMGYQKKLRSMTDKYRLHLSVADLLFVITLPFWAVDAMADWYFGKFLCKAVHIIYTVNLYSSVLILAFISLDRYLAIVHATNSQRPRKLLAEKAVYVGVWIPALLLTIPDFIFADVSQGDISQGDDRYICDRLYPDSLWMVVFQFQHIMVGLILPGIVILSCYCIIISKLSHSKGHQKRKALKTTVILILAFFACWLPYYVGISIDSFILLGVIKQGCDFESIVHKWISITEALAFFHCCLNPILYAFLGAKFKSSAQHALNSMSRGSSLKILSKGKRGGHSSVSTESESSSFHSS
# Chain of Cytochrome P450 3A4 (P08684 whole entry): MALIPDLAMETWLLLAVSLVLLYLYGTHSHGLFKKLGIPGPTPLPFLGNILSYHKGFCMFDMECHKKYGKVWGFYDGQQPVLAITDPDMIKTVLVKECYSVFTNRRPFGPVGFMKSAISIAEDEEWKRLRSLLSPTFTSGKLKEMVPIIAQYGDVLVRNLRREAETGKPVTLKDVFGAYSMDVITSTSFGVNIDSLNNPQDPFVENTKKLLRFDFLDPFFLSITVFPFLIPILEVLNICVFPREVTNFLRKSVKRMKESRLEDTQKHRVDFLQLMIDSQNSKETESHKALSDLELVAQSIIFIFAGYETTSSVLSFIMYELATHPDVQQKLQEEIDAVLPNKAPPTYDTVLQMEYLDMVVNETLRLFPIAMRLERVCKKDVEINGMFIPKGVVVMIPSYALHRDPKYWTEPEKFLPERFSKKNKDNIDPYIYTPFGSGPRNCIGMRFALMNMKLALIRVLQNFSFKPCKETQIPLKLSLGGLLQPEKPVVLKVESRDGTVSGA
# Chain of Cytochrome P450 2C9 (P11712 whole entry): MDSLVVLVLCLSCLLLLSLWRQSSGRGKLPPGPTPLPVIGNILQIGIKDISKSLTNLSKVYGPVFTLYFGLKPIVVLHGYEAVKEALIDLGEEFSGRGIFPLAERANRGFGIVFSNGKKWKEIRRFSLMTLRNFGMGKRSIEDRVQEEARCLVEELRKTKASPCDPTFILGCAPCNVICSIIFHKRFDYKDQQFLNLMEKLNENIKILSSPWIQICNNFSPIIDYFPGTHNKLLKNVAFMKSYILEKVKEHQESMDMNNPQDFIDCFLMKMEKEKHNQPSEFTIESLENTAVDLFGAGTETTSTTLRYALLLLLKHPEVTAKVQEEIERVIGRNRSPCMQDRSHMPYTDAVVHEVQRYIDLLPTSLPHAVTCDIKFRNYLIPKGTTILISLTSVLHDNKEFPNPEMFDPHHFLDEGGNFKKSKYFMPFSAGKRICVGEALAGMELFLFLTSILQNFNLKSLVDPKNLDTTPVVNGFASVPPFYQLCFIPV
# Chain of Cytochrome P450 2C19 (P33261 whole entry): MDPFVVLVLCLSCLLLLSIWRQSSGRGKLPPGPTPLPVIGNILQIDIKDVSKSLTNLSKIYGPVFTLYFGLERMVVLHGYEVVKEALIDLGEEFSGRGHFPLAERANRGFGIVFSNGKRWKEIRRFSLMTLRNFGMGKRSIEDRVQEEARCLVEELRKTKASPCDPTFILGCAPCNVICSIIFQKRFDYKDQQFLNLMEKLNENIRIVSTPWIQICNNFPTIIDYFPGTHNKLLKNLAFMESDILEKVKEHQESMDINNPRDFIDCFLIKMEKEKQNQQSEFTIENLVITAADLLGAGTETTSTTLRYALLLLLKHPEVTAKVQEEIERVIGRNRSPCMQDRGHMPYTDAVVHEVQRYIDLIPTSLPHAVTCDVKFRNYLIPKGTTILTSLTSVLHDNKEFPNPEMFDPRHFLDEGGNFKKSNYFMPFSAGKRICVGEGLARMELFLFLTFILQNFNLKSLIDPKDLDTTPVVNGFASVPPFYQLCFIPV
# T1 sequence (P61073 whole entry): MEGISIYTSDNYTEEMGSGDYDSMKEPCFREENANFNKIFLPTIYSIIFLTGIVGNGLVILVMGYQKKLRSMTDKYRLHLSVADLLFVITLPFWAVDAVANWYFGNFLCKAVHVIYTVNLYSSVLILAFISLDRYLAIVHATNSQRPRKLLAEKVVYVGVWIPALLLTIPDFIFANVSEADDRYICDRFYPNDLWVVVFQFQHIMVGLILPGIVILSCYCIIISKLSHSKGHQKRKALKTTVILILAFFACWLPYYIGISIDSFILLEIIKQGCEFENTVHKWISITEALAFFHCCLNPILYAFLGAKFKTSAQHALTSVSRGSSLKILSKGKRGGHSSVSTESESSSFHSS
# Chain of Cytochrome P450 2D6 (P10635 whole entry): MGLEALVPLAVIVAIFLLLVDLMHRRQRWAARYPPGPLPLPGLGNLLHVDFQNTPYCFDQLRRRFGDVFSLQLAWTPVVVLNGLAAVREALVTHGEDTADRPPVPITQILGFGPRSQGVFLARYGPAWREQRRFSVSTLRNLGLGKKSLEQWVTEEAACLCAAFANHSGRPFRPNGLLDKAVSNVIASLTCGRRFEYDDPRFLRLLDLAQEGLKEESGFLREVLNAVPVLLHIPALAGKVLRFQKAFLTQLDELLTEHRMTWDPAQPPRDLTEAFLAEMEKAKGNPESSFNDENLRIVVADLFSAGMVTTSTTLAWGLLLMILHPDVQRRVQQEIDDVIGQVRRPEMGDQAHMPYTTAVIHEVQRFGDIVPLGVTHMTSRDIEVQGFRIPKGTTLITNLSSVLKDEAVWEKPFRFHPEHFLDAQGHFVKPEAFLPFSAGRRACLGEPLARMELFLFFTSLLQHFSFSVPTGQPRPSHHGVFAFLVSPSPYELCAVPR
SMILES,IC50 [1] [µM],IC50 (Cytochrome P450 3A4) [µM],"remaining at 10 min, 0.5 µM [2] [%]","Papp at 4 h, 100 µM [3] [×10⁻⁶ cm/s]",EC50 [4] [µM],IC50 [5] [µM],EC50 [6] [µM],IC50 (Cytochrome P450 2D6) [µM],"remaining at 10 min, 0.5 µM [7] [%]",IC50 (Cytochrome P450 2C19) [µM],IC50 [8] [µM],IC50 (Cytochrome P450 2C8) [µM],"Papp at 4 h, 100 µM [9] [×10⁻⁶ cm/s]",IC50 (Cytochrome P450 2C9) [µM],IC90 [1] [µM],half-life [10] [h],inhibition (Homo sapiens) [%],half-life [11] [h],IC50 [12] [µM]
CC(C)(CN)CCN(C[C@H]1Cc2ccccc2CN1)[C@H]1CCCc2cccnc21,0.069,> 20,51.2,40.5,> 30,> 16.7,> 30,0.498,88.7,–,–,–,–,–,–,–,–,–,–
CC1(C)CCC(NCC(C)(C)CCN(C[C@H]2Cc3ccccc3CN2)[C@H]2CCCc3cccnc32)CC1,0.541,7.83,51.1,2.8,> 30,18.8,> 30,2.22,23.9,< 5,< 5,< 5,1.1,< 5,–,–,–,–,–
CC(C)(CCN(C[C@H]1Cc2ccccc2CN1)[C@H]1CCCc2cccnc21)CNC1CCC(F)(F)CC1,0.168,–,16.8,2.2,> 30,18.8,> 30,2.04,16.1,< 5,< 5,< 5,1.75,< 5,–,–,–,–,–
c1ccc2c(c1)CN[C@@H](CN(CCCCN(Cc1ccncc1)Cc1ccncc1)[C@H]1CCCc3cccnc31)C2,0.832,0.622,1.55,77.4,> 30,11.4,> 30,0.12,0.521,–,–,–,18,–,–,–,–,–,–
C(=C\CN(C[C@H]1Cc2ccccc2CN1)[C@H]1CCCc2cccnc21)/CNCc1ccccn1,–,–,2.98,5,> 30,22,> 30,0.709,31.2,–,–,–,1.8,–,–,–,–,–,–
NC/C=C\CN(C[C@H]1Cc2ccccc2CN1)[C@H]1CCCc2cccnc21,0.00926,–,4.36,56.9,> 30,0.605,> 30,0.333,100,–,–,–,3.9,–,–,–,–,–,–
NC/C=C/CN(C[C@H]1Cc2ccccc2CN1)[C@H]1CCCc2cccnc21,0.129,–,10.7,82.9,> 30,> 16.7,> 30,0.51,100,–,–,–,26.4,–,–,–,–,–,–
c1ccc2c(c1)CN[C@@H](CN(CCCCNC1CCSCC1)[C@H]1CCCc3cccnc31)C2,0.0547,–,23.2,0.2,> 30,> 33.3,> 30,0.434,39.9,–,–,–,4.6,–,–,–,–,–,–
NCc1ccccc1CN(C[C@H]1Cc2ccccc2CN1)[C@H]1CCCc2cccnc21,0.0508,–,1.29,21.4,> 30,1.2,> 30,0.318,50.5,–,–,–,18.4,–,–,–,–,–,–
NCCCCN(C[C@H]1Cc2ccccc2CN1)[C@H]1CCCc2cccnc21,–,–,–,–,–,> 30,> 30,–,–,–,–,–,0.6,–,0.0326,6,< 10,1,–
c1ccc2c(c1)CN[C@@H](CN(CCCCNCC1CCCCC1)[C@H]1CCCc3cccnc31)C2,0.158,–,41.8,0.9,> 30,> 16.7,> 30,0.354,50,–,–,–,2.1,–,–,–,–,–,–
c1cncc(CN(CCCCN(C[C@H]2Cc3ccccc3CN2)[C@H]2CCCc3cccnc32)Cc2cccnc2)c1,0.471,–,1.4,43.5,> 30,11.5,> 30,0.348,0.432,–,–,–,9.1,–,–,–,–,–,–
FC1(F)CCC(NC/C=C/CN(C[C@H]2Cc3ccccc3CN2)[C@H]2CCCc3cccnc32)CC1,–,–,2.12,4.9,> 30,6.98,> 30,1.45,31.7,–,–,–,0.9,–,–,–,–,–,–
CC1(C)CCC(NC/C=C/CN(C[C@H]2Cc3ccccc3CN2)[C@H]2CCCc3cccnc32)CC1,–,0.99,7.71,–,> 30,2.45,> 30,0.66,42,–,–,–,–,–,–,–,–,–,–
c1ccc(CN(CCCCN(C[C@H]2Cc3ccccc3CN2)[C@H]2CCCc3cccnc32)Cc2ccccn2)nc1,0.664,–,0.374,29.4,> 30,12.9,> 30,1.16,0.548,–,–,–,4.8,–,–,–,–,–,–
CC(C)(CCN(C[C@H]1Cc2ccccc2CN1)[C@H]1CCCc2cccnc21)CNC1CCOCC1,0.0363,17.7,49.8,5.7,> 30,11.5,> 30,6.21,21.8,< 5,< 5,< 5,5.7,< 5,0.416,–,–,–,0.02
CC(C)(N)CCCN(C[C@H]1Cc2ccccc2CN1)[C@H]1CCCc2cccnc21,0.0246,> 20,3.32,–,> 30,> 16.7,> 30,0.345,73.5,–,–,–,2,–,–,–,–,–,–
C(=C\CN(C[C@H]1Cc2ccccc2CN1)[C@H]1CCCc2cccnc21)/CNC1CCOCC1,–,–,10,43.4,> 30,5.61,> 30,2.61,69.9,< 5,< 5,< 5,10.5,< 5,0.191,–,–,–,0.00924
CC(C)(CCN)CN(C[C@H]1Cc2ccccc2CN1)[C@H]1CCCc2cccnc21,> 33.3,10.8,5.22,25.5,> 30,> 33.3,> 30,0.197,76.1,–,–,–,26.8,–,–,–,–,–,–
C(=C\CN(C[C@H]1Cc2ccccc2CN1)[C@H]1CCCc2cccnc21)/CNCC1CCOCC1,–,–,32.3,12.2,> 30,19.9,> 30,3.32,74.5,< 5,< 5,< 5,3.35,< 5,0.195,–,–,–,0.00547
